According to doi:10.1101/2024.05.29.596450v1 (biorxiv, 2024):

Tested on: Staphylococcus aureus MRSA (ATCC BAA-44)
Assay: microbe, parasite or virus in culture
Set-up: species or system Staphylococcus aureus ATCC BAA-44
Details: ATCCBAA44|MRSA, 18 h, read-out: %viability

With `CC1(C)S[C@@H]2[C@H](NC(=O)[C@H](N)c3ccc(O)cc3)C(=O)N2[C@H]1C(=O)O` [Amoxicillin] the viability at 50 µM was 85%.
